In paper PMC2679150 (Science (New York, N.Y.), 2009) one finds Ki data, which are given here for one compound.

One may read the Ki as the dissociation constant of the complex between target and ligand, obtained from inhibition or displacement. Read a high Ki as weaker binding.

Each structure is given as a SMILES string.

The assay addresses T1, BlaC β-lactamase (Mycobacterium tuberculosis, UniProt P9WKD3).
T1 sequence (P9WKD3 35-307): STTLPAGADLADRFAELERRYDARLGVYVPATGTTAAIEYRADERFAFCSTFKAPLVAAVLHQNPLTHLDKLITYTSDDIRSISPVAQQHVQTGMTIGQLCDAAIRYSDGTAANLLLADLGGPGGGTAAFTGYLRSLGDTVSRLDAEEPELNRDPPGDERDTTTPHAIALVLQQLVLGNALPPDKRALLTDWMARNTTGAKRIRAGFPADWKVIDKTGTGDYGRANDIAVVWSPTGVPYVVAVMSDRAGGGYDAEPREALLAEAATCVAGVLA
Kind of assay: biochemical.

As to `C[C@@H](O)[C@H]1C(=O)N2C(C(=O)O)=C(S[C@@H]3CN[C@H](C(=O)N(C)C)C3)[C@H](C)[C@H]12` [meropenem], the Ki came out at 1100 ± 800 nM.
